Like-named read-outs stand apart in the source and are kept apart here.
Experiments:
[1] = molecular target: purified human, His-tagged PRC2 complex (Homo sapiens (Human), UniProt O75530); test: Hot Spot HMT assay: inhibition of PRC2 enzymatic activity (transfer of tritiated methyl from SAM to core histone H3); type: biochemical; conditions: 10 nM PRC2 complex, 0.05 mg/ml core histone H3, 1 uM 3H-SAM, 1 hr at 30° C.; read-out: IC50, Inhibition of PRC2-mediated Enzymatic Activity
Description: The assay uses purified human, His-tagged PRC2 complex, including N-terminal His-tagged EZH2 enzyme. N-terminal Flag-tagged embryonic ectoderm development protein (EED), N-terminal His-tagged suppressor of zeste 12 (SUZ12), N-terminal His-tagged AEBP2, and N-terminal His-tagged RbAp48. In this assay, the transfer of the tritiated methyl group from radiolabeled S-adenosyl methionine (SAM) to purified core histone protein by EZH2 is quantitated after filtration to determine the activity of the core PRC2 complex in the presence and absence of compound.
The initial starting concentration for the serial dilutions of each compound was 1.0 μM. […] SAH (S-(5-adenosyl)-L-homocysteine) was used as a positive control for assay validation.
An aliquot of each serial dilution of test compound was added to deep 384 well plate using Acoustic Technology instrument (Echo 550, LabCyte) containing reaction buffer (50 mM Tris-HCl (pH 8)), 0.01% Brij35, 1 mM EDTA, 1 mM DTT, 1 mM PMSF and 1% DMSO), 10 nM purified PRC2 complex and 0.05 mg/ml core histone H3 in a 5 μl volume. The reaction was mixed gently and then pre-incubated for 20 min at 30° C. The enzymatic reaction was initiated by adding 1 uM S-Adenosyl-L-[methyl-^3H]methionine and incubated for 1 hr at 30° C. After 1 hr, the reaction product was detected using a filter binding method and the amount of tritiated H3 core histone was quantitated using a scintillation counter. […] Key: A=<100 nM; B=>100 nM-<500 nM; and C=>500 nM.

[2] = test system: Karpas 422 cells expressing mutant EZH2 (Y641N); test: Karpas 422 cell viability, CTG (Cell Titre Glo) assay; type: cell-based, human; conditions: Day 4, 7 or 11 measured, time point of the table not stated, read-out: IC50 (nM), Inhibiting Proliferation of Cells Expressing an Activating Mutant Form of EZH2
Protocol: Karpas 422 cell line is a human B cell non-Hodgkin's lymphoma cell line established from a patient having DLBCL. This EZH2 heterozygotic cell line expresses a mutant form of EZH2 enzyme (Y641N) that increases histone H3 methylation and this mutation has been implicated in the tumorgenesis of lymphomas, such as DLBCL.
Karpas 422 cells (PHE cat no., 06101702) were cultured in RPMI medium supplemented with 20% fetal bovine serum and 1% penicillin/l % streptomycin and plated at a density of 1000 cells/90 μl/well in 96 well white assay plates. A dose response curve for compounds of the present invention was determined by adding a 10 μl aliquot of stock solutions of varying concentrations of compounds to the same medium in each well, over a concentration range of 10 μM using 3-fold dilutions to a final concentration of 1.5 nM. The plates were incubated at 37° C. for predetermined time periods, Day 4, Day 7, or Day 11, and the viability of the cells was measured using a CTG assay kit (Cell Titre Glo; Promega cat. no G7573) on Day 4 and Day 7 in accordance with the manufacturer's instructions.
For the viability assay for the Day 11 plates, the plates were subjected to centrifugation at 1100 rpm for five minutes on Day 7 and the supernatant was removed by aspiration. The cells were resuspended in 90 μl aliquot of the appropriate growth medium lacking the compound followed by addition of 10 μl of a 10× stock of the same compound at the same concentration. The viability of the Day 11 cells was measured using the CTG assay kit described above in accordance with the manufacturer's instructions. The IC50 values for each compound at each predetermined time point were calculated using Graph pad PRISM software and the results are shown in Table 15. A=≤250 nM; B=<250 nM-≤500 nM; and C=>500 nM.

[3] = test system: histone H3 Lys27 trimethylation in Pfeiffer cells expressing mutant EZH2 (A677G); test: Tri-Methyl Histone H3 (Lys 27) sandwich ELISA in Pfeiffer cells; type: cell-based; conditions: Homo sapiens, 96 hours incubation, read-out: IC50 (nM), Inhibition of EZH2-mediated Histone H3 Trimethylation
Description: The Pfeiffer cell line was established from a […] from a patient having metastatic diffuse large B-cell lymphoma (DLBCL). This cell line expresses a mutant form of the EZH2 enzyme (A677G) that results in enhanced EZH2 activity leading to increased methylation of histone H3 Lys27. Increased trimethylation of histone H3 Lys27 is believed to be implicated in tumorgenesis and poor clinical prognosis in lymphomas (McCabe et al., (2012) Nature 492:108-112).
Inhibition of PRC2-mediated histone H3 methylation by compounds of Formula (I) was measured by ELISA using a Tri-Methyl Histone H3 (Lys 27) Sandwich ELISA Kit (Cell Signaling Tech #7866C) in accordance with the manufacturer's instructions. Briefly, Pfeiffer cells were cultured in RPMI medium supplemented with 10% fetal bovine serum and 1% penicillin and 1% streptoncin in 96 well culture plates at 37° C. to a density of 8000 cells/90 μl/well and the cells were harvested. A series of 3-fold serial dilutions of each test compound of Formula (I) were prepared in RPMI medium and added to the cells at final concentrations ranging from 1 μM to 0.15 nM. The plates were incubated at 37° C. for 96 hours.
After incubation, the cells were pelleted by centrifugation in a pre-cooled 4° C. rotor at 1,100 rpm for 10 min and the supernatant was removed by aspiration. The cell pellet was resuspended in 55 μl of Lysis Buffer (0.4M HCl) and incubated on ice with periodic shaking for 30 minutes. The lysed cells were subjected to centrifugation at 4,200 rpm for 10 min at 4° C. and the supernatant containing acid-soluble proteins was collected and the remainder discarded. The acid-soluble proteins were brought to a neutral pH by the addition of 20 μl of Neutralization Buffer (1 M Sodium phosphate, dibasic (pH 12.5), 2.5 mM DTT and 1 mM PMSF) and the neutralized lysates were analyzed by ELISA.
A 65 μl aliquot of each cell lysate was added to a well of a microwell strip, the microwells were sealed using tape and incubated either at 37° C. for two hours or at 4° C. overnight. After incubation, the tape was removed at the microwells were washed four times using 200 μl of 1× Wash Buffer. To each washed microwell, a 100 μl aliquot of an anti-trimethyl histone H3 Lys27 Detection Antibody solution was added and the microwells were incubated at 37° C. for one hour. The Detection Antibody solution was removed by aspiration and the wells were washed four times each using 200 μl of 1× Wash Buffer.
A 100 μl aliquot of an HRP-linked secondary antibody was added to each well, the wells were sealed with tape and incubated at 37° C. for 30 min. The HRP-linked secondary antibody solution was removed by aspiration and the wells were washed four times using 200 μl of 1× Wash Buffer. A 100 μl aliquot of a TMB substrate was added to each well, the wells were sealed with tape and incubated at 37° C. for 10 min or 25° C. for 30 min. The reaction was stopped by the addition of 100 μl aliquot of a STOP solution and the plate was shaken briefly. The degree of histone H3 trimethylation was determined using a spectrophotometric readout by measuring the absorbance at 450 nm and then calculating the amount of trimethylated histone H3. A=≤100 nM; B=>100 nM-≤500 nM; C=>500 nM and N.D.=not determined.

Sequence of purified human, His-tagged PRC2 complex (Q15910 whole entry): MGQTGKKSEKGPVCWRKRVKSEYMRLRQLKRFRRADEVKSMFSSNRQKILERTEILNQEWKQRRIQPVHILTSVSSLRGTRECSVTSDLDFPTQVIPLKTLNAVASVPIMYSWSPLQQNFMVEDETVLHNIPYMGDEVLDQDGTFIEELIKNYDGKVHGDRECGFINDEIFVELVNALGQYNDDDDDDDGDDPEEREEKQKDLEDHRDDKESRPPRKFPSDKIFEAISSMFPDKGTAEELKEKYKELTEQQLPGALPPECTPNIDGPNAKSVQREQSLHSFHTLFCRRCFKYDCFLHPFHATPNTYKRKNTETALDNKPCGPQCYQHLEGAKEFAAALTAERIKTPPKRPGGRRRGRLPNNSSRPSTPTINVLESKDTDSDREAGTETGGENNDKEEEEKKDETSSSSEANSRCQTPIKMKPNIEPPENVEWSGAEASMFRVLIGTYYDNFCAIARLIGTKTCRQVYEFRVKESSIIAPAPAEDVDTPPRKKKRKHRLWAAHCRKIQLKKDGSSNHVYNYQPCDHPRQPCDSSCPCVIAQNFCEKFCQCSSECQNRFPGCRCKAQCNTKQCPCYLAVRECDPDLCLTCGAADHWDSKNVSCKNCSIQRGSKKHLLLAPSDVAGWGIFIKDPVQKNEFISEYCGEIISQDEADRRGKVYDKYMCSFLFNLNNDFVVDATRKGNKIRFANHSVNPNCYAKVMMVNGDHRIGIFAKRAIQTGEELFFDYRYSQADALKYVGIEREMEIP
Sequence of purified human, His-tagged PRC2 complex (O75530 whole entry): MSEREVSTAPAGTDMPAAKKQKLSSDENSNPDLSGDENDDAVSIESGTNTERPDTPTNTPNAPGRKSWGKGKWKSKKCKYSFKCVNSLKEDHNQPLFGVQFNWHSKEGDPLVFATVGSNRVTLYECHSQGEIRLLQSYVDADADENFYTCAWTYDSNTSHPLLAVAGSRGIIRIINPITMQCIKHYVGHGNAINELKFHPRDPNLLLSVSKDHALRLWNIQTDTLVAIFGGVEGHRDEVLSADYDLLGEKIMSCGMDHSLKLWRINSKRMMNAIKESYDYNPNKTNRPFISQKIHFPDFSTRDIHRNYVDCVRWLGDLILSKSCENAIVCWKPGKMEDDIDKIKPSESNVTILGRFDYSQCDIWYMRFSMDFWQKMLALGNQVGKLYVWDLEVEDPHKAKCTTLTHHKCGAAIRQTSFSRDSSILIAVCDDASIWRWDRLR
Sequence of purified human, His-tagged PRC2 complex (Q15022 whole entry partner): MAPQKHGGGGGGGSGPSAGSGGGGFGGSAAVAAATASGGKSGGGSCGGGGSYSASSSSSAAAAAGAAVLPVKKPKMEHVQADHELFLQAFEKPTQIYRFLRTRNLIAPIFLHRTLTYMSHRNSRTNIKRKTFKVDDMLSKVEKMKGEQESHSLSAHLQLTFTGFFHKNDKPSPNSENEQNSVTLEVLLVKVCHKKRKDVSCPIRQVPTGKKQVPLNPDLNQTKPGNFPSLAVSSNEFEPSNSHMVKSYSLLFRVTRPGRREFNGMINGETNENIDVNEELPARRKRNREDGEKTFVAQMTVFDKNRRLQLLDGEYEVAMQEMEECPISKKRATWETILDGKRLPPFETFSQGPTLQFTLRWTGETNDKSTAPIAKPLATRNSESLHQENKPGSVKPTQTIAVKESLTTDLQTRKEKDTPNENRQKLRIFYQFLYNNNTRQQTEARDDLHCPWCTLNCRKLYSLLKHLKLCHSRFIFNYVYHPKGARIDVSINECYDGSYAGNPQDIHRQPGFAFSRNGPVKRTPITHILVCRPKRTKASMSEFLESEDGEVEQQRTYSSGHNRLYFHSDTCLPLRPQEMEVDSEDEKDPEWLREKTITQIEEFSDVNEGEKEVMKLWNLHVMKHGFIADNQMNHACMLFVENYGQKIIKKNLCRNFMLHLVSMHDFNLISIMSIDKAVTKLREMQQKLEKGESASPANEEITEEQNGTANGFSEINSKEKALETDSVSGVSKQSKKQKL
Sequence of purified human, His-tagged PRC2 complex (Q6ZN18 whole entry partner): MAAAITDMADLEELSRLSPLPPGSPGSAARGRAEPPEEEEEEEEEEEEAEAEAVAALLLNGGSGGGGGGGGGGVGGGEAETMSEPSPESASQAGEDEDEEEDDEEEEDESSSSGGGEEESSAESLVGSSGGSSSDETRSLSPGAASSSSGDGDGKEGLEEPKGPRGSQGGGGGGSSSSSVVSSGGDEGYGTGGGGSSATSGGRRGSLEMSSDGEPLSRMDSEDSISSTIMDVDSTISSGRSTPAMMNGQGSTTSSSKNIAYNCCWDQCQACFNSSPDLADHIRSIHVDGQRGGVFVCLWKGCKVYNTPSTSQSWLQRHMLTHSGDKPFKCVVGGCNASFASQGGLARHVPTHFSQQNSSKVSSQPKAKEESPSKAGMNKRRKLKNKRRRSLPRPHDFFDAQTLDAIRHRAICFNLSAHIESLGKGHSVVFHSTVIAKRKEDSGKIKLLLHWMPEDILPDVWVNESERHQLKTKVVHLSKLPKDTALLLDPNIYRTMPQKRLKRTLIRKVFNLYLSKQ
Sequence of purified human, His-tagged PRC2 complex (Q09028 whole entry partner): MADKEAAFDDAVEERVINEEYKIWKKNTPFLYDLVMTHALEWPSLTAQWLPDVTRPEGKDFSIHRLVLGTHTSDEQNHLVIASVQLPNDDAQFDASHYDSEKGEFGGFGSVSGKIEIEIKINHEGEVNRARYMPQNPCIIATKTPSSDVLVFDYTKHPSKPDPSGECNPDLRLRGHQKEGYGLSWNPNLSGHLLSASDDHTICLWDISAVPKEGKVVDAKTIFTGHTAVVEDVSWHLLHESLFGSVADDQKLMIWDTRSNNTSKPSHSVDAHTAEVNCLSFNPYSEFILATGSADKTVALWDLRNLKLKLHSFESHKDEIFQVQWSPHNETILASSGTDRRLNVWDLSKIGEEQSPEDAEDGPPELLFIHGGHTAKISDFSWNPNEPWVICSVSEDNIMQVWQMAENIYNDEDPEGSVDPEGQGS

IC50 [3] [nM]	IC50 [2] [nM]	Compound	IC50 [1] [µM]	IC50 ([2]; Homo sapiens, 96 h) [nM]
–	–	Cc1cc(-c2cnc(NCc3c(F)ccc4occc34)n3cc(C#N)nc23)n(C)n1 [Example 28]	< 0.1	250 to 500
–	≤ 250	Cc1nc(CN(C)C)ccc1-c1cnc(NCc2c(F)ccc3c2CCO3)n2cc(C#N)nc12 [Example 152]	–	–
< 100	–	Cn1nc(C(=O)O)cc1-c1cnc(NCc2c(F)ccc3c2CCO3)n2cc(C#N)nc12 [Example 157, 5-(2-cyano-5-(((5-fluoro-2,3-dihydrobenzofuran-4-yl)methyl)amino)imidazo[1,2-c]pyrimidin-8-yl)-1-methyl-1H-pyrazole-3-carboxylic acid]	–	≤ 250
100 to 500	–	[2H]C([2H])(Nc1ncc(-c2ccc(CN(C)C)cc2)c2nc(C#N)cn12)c1c(F)ccc2c1CCO2 [Example 165, 8-(4-((dimethylamino)methyl)phenyl)-5-(((5-fluoro-2,3-dihydrobenzofuran-4-yl)methyl-d2)amino)imidazo[1,2-c]pyrimidine-2-carbonitrile]	–	≤ 250
–	250 to 500	CN(C)C(=O)c1cc(-c2cnc(NCc3c(F)ccc4c3CCO4)n3cc(C#N)nc23)n(C)n1 [Example 170, 5-(2-cyano-5-(((5-fluoro-2,3-dihydrobenzofuran-4-yl)methyl)amino)imidazo[1,2-c]pyrimidin-8-yl)-N,N,1-trimethyl-1H-pyrazole-3-carboxamide]	–	–
100 to 500	–	Cc1cc(-c2cnc(NCc3c(F)ccc4c3CCO4)n3cc(C#N)nc23)ccn1 [Example 178, 5-(((5-fluoro-2,3-dihydrobenzofuran-4-yl)methyl)amino)-8-(2-methylpyridin-4-yl)imidazo[1,2-c]pyrimidine-2-carbonitrile]	0.1 to 0.5	≤ 250

Compound	IC50 [3] [nM]	IC50 [2] [nM]	IC50 [1] [µM]	IC50 ([2]; Homo sapiens, 96 h) [nM]
N#Cc1cn2c(NCc3c(F)ccc4c3CCO4)ncc(-c3cnc(C4CC4)nc3)c2n1 [Example 70]	< 100	–	< 0.1	≤ 250
Cc1cc(-c2cnc(NCc3c(F)ccc4c3OCO4)n3cc(C#N)nc23)n(C)n1 [Example 228, 8-(1,3-dimethyl-1H-pyrazol-5-yl)-5-(((5-fluorobenzo[d][1,3]dioxol-4-yl)methyl)amino)imidazo[1,2-c]pyrimidine-2-carbonitrile]	100 to 500	–	0.1 to 0.5	≤ 250

— patent US11220509B2, “Substituted imidazo[1,2-c]pyrimidines as PRC2 inhibitors” (Mirati Therapeutics, Inc., priority 2018, dated 2022)
